This note sets out measurements from US20030138374A1, “Image diagnosis probe based on substituted azobenzene or analogue thereof for disease attributable to amyloid accumulation and composition for image diagnosis containing the same” (priority 2000, published 2003).

The target in one series is T1, amyloid β protein (Homo sapiens, UniProt P05067).
T1 construct: the amyloid β protein (purchased from Peptide Laboratory) was dissolved in a potassium phosphate buffer (pH7.4); purchased Peptide Laboratory
T1 sequence (P05067 672-711 limits assumed): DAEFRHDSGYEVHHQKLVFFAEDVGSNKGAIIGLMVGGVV
The experiment in a line: β structure recognition of amyloid β protein (thioflavin T fluorescence). The series is classed as binding. The note with it: for β structure recognition (%) at 1 µM / β Structure recognition (%): test compound 1 μM, thioflavin T 3 μM, average of duplicated experiments; for β structure recognition (%) at 1 µM: read-out: β Structure recognition (%); for β structure recognition (in words): comment on Table I. As for the experimental part: (1) Method of Quantifying the Amyloid β Protein Having β Sheet Structure—method of Measuring of Recognition of β Structure in a Test Compound
Then, each 100 microliters of thioflavin T (which emits fluorescence depending on an extent of β structure of the amyloid β protein) dissolved in a glycine-NaOH buffer (pH 8.5) was added (final concentration 3 μM), and the fluorescence was immediately measured with a fluorescent microplate reader (manufactured by Molecular Device, Model fmax) at an excitation wavelength of 442 nm and a measurement wavelength of 485 nm. When the fluorescence of thioflavin alone was regarded as A, the fluorescence under the coexistence of the amyloid β protein and thioflavin T was regarded as B, and the fluorescence under the coexistence of the amyloid β protein, thioflavin T and a test compound was regarded as C, the recognition of β structure for the test compound was calculated by the following formula (unless otherwise indicated, the concentration of a test compound was 1 μM):
β structure recognition for test compound (%)={(B−C)/(B−A)}×100

The nature of series [1]: Distribution coefficient between water/1-octanol. The series is classed as physicochemical. The note with it: for Distribution coefficient: 1-octanol / phosphate buffer (pH 7.3) or ultra-pure water; for Distribution coefficient (in words): comment on Table I. How it is done: As an oily phase, 1-octanol was used and, as an aqueous phase, a phosphate buffer (pH 7.3) or ultra-pure water was used. A suitable amount of a test compound was dissolved in an oily phase or an aqueous phase, and both phases were placed in the same test tube, and shaken vigorously at room temperature for 30 minutes. After allowing to stand at room temperature over 1 hour, centrifugation at 2000 rpm for 10 minutes was carried out, followed by further standing at room temperature for 1 hour. The aqueous phase and the oily phase were sampled, respectively, and transferred to a 96-well microplate. By using a microplate reader (manufactured by Molecular Device, Model Spectramax 250), the absorbance was measured at a maximum absorbing wavelength for each test compound, and the concentration of the test compound was calculated from a calibration curve previously obtained. A distribution coefficient was calculated by the following formula. Distribution coefficient for test compound =(concentration of test compound in oily phase)/(concentration of test compound in aqueous phase) As the distribution coefficient becomes larger, it can be said that the blood-brain barrier permeability for the test compound is higher.

Counter-ions that a name gives are not always drawn.

For the compound `Cc1cc(N(C)C)ccc1/N=N/c1ccccc1` [SA-135, 4-dimethylamino-2-methyl-azobenzene], the β structure recognition (%) at 1 µM at amyloid β protein came out at 42.8%.

Turning to `CN(C)c1ccc(/N=N/c2ccc(S(=O)(=O)Cl)cc2)cc1` [SA-188, 4-(dimethylamino) azobenzene-4′-sulfonylchloride], the β structure recognition (%) at 1 µM at amyloid β protein worked out at 62.7%.

For `CN(C)c1ccc(/C=N/c2ccc(F)cc2)cc1` [SA-407, N-(4-(dimethylamino)benzylidene)-4-fluoroaniline], the β structure recognition (%) at 1 µM at amyloid β protein was found to be 6.8%.

Take `CCN(CC)c1ccc(/N=N/c2ccccc2)cc1` [SA-134, 4-(diethylamino) azobenzene]: the β structure recognition (%) at 1 µM on amyloid β protein came out at 65.4%.

With `CCN(CC)c1ccc(/N=N/c2ccc(Br)cn2)c(O)c1` [BF-020], at amyloid β protein, the “β Structure recognition (%)” value is recorded as 84.4%.

In the case of `COc1cc(N=Nc2ccc(N)cc2)c(C)cc1N` [SA-419, 4,4′diamino-5-methoxy-2-methyl azobenze], the β structure recognition (%) at 1 µM at amyloid β protein stood at 38.4%.

Consider `CCN(CC)c1ccc(N=Nc2ccc(N(C)C)cc2)c(NC(N)=O)c1` [SA-420, 4-(diethylamino)-4′-(dimethylamino)-2-(ureido)azobenzene], for which, on amyloid β protein, the “β structure recognition (in words)” value is recorded as “highly recognize β structure” and the β structure recognition (%) at 1 µM turned out to be 71.6%.

`Nc1ccc(/C=C/c2ccc(N)cc2)cc1` [SA-324, 4,4′-diaminostylbene (2HCl salt)]: at amyloid β protein, the β structure recognition (%) at 1 µM amounted to 36%.

Regarding `CCN(CC)c1ccc(/N=C/c2ccc(N(CC)CC)cc2O)cc1` [BF-021], the “β Structure recognition (%)” value on amyloid β protein is listed as 70.8%. Further, in series [1], the Distribution coefficient was 30 and the “Distribution coefficient (in words)” value is “high distribution coefficients”.

As for `Nc1ccc(/N=N/c2cccc3ccccc23)c(N)c1` [SA-201, Fat Brown RR], the β structure recognition (%) at 1 µM on amyloid β protein was 73%.

Take `CCOc1ccc(/N=C/c2ccc(N(C)C)cc2)cc1` [SA-399, N-(4-(dimethylamino)benzylidene)-p-phenetidine]: on amyloid β protein, the β structure recognition (%) at 1 µM amounted to 23.1%.

On to `CC[n+]1c(/C=C/c2ccc(N(C)C)cc2)ccc2ccccc21` [SA-169, Quinaldine Red], for which, at amyloid β protein, the “β structure recognition (in words)” value is “highly recognize β structure” and the β structure recognition (%) at 1 µM came to 91.9%. The Distribution coefficient in series [1] was determined as 18.

On to `CN(C)c1ccc(/C=C/c2ccc3ccccc3[n+]2C)cc1` [SA-245, 2-(4-(dimethylamino)stylyl)-1-methyl quinolinium iodide], for which, at amyloid β protein, the “β structure recognition (in words)” value is recorded as “highly recognize β structure” and the β structure recognition (%) at 1 µM came to 86.9%. In series [1], the Distribution coefficient was 10.

Turning to `CN(C)c1ccc(/C=N/c2ccc(F)cc2)cc1.Cl` [BF-035], the “β Structure recognition (%)” value at amyloid β protein was found to be 5.6%.

In the case of `CN(C)c1ccc(/N=C2/C=CC(=O)c3ccccc32)cc1` [BF-022], the β structure recognition (%) at 1 µM at amyloid β protein was found to be 27.8%.

As to `CN(C)c1ccc(/C=N/c2ccc(O)cc2)cc1` [BF-033], the β structure recognition (%) at 1 µM on amyloid β protein came out at 7.6%.

Take `CN(C)c1ccc(SSc2ccc(N(C)C)cc2)cc1` [Compound N-200]: the β structure recognition (%) at 1 µM at amyloid β protein was found to be 21.6%.

With `CC[n+]1ccccc1/C=C/c1ccc(N(C)C)cc1` [SA-212, 2-(4-(dimethylamino)stylyl)-1-ethyl pyridinium iodide], the β structure recognition (%) at 1 µM on amyloid β protein is 46%.

`CCOc1ccc(/N=C/c2ccc(N(C)C)cc2)cc1.Cl` [BF-034]: the “β Structure recognition (%)” value at amyloid β protein was 19.7%.

Regarding `CN(C)c1ccc(/C=C/c2ccc3ccccc3n2)cc1` [SA-770, 2-(4-(dimethylamino)stylyl) quinoline], the β structure recognition (%) at 1 µM at amyloid β protein stood at 25.4%.

With `CCN(CC)c1ccc(/N=N/c2ccc(S(=O)(=O)O)cc2)cc1` [SA-163, Ethyl Orange Na salt], on amyloid β protein, the β structure recognition (%) at 1 µM worked out at 30.7%.

In the case of `CN(C)c1ccc(/N=N/c2ccc(NC(=O)CI)cc2)cc1` [SA-446, N-(4-dimethylamino) azobenzene-4′-iodoacetamide], the β structure recognition (%) at 1 µM at amyloid β protein turned out to be 52.4%.

For the compound `CCN(CC)c1ccc(/C=C/c2cccc(/C=C/c3ccc(N(CC)CC)cc3)[n+]2C)cc1` [BF-064], at amyloid β protein, the “β structure recognition (in words)” value is listed as “highly recognize β structure” and the β structure recognition (%) at 1 µM was determined as 78.5%. For the same compound, in series [1], the Distribution coefficient turned out to be 87 and the “Distribution coefficient (in words)” value was “high distribution coefficients”.

With `CN(C)c1ccc(C=Cc2cccc[n+]2C)cc1.[I-]` [SA-247, 2-(4-(dimethylamino)stylyl)-1-metyl pyridinium iodide], the “β Structure recognition (%)” value on amyloid β protein came out at 19.5%.

In the case of `O=C([O-])c1cc(/C=C/c2ccc(/C=C/c3ccc(O)c(C(=O)[O-])c3)cc2)ccc1O.[Na+].[Na+]` [Compound X34.2Na, reference compound], at amyloid β protein, the “β Structure recognition (%)” value is on record as 74.0%. Further, the Distribution coefficient in series [1] was 2.7.

Consider `CCN(CC)c1ccc(/N=N/c2ccc(N(C)C)cc2)c(NC(N)=O)c1` [BF-055], for which the β structure recognition (%) at 1 µM at amyloid β protein came out at 85%.

On to `Nc1ccc(/N=N/c2ccc([N+](=O)[O-])cc2)cc1` [SA-180, Disprese Orange 3], for which, at amyloid β protein, the β structure recognition (%) at 1 µM amounted to 58%.

Turning to `CCN(CC)c1ccc(/C=N/c2ccccc2)cc1` [SA-757, N-(4-(diethylamino)benzylidene) aniline], the β structure recognition (%) at 1 µM at amyloid β protein was 33.9%.

For the compound `CN(C)c1ccc(N=Nc2ccc(N)cc2Cl)cc1` [SA-376, Disperse Black 7], the β structure recognition (%) at 1 µM at amyloid β protein amounted to 35.7%.

Take `CN(C)c1ccc(/N=N/c2ccc(C(=O)O)cc2)cc1` [SA-606]: the β structure recognition (%) at 1 µM at amyloid β protein is 53.5%.

As to `Nc1ccc(/N=N/c2ccccc2)cc1` [SA-148, 4-phenyl azoaniline], the “β Structure recognition (%)” value at amyloid β protein is on record as 28.0%.

On to `CN(C)c1ccc(/N=N/c2ccc(S(=O)(=O)O)cc2)cc1` [SA-125, Methyl Orange], for which, on amyloid β protein, the β structure recognition (%) at 1 µM amounted to 62.2%. For the same compound, the Distribution coefficient in series [1] was 1.

As for `CN(C)c1ccc(C=Cc2cccc[n+]2C)cc1.[I-]` [SA-213, 2-(4-(dimethylamino)stylyl)-1-methyl pyridinium iodide], the “β Structure recognition (%)” value at amyloid β protein was 50.7%.

Turning to `CN(C)c1ccc(N=Nc2ccccn2)cc1` [SA-215, 4-(2-pyridylazo)-N,N-dimethylaniline], on amyloid β protein, the “β structure recognition (in words)” value is listed as “relatively high recognition of β structure” and the β structure recognition (%) at 1 µM came to 69.1%. For the same compound, in series [1], the Distribution coefficient is greater than 100 and the “Distribution coefficient (in words)” value is recorded as “highest distribution coefficient”.

For `Nc1c(SSc2ccc3ccccc3c2N)ccc2ccccc12` [SA-366, 2,2′-dithiobis(1-naphthylamine)], the β structure recognition (%) at 1 µM at amyloid β protein came to 43.3%.

Consider `CN(C)c1ccc(/C=C/c2ccccn2)cc1` [SA-271], for which, on amyloid β protein, the β structure recognition (%) at 1 µM amounted to 53%.

For `CN(C)c1ccc(/N=N/c2ccc(N)cc2)cc1` [SA-512, N,N-dimethyl-4,4′-azodianiline], the β structure recognition (%) at 1 µM on amyloid β protein is 68.2%.

Turning to `CCN(CC)c1ccc(/C=C/c2cc[n+](C)cc2)cc1` [SA-445], on amyloid β protein, the β structure recognition (%) at 1 µM worked out at 71.2%.

For `O=C(O)c1cc(/C=C/c2ccc(/C=C/c3ccc(O)c(C(=O)O)c3)cc2)ccc1O` [Compound X34, 1,4-bis[2-(3-carboxy-4-hydroxyphenyl)eten-yl]-benzene, reference compound], on amyloid β protein, the β structure recognition (%) at 1 µM was found to be 73.9%. The compound further had a Distribution coefficient in series [1] of 3.4.

As for `O.O.O.O.O.O=C([O-])c1cc(N=Nc2ccc(-c3ccc(N=Nc4ccc(O)c(C(=O)[O-])c4)cc3)cc2)ccc1O.[Na+].[Na+]` [Chrysamine G 2Na.5H2O, reference compound], the “β Structure recognition (%)” value at amyloid β protein is reported as 84.5%. Moreover, in series [1], the Distribution coefficient turned out to be 2.7.

As to `Nc1ccc(/N=N/c2ccccc2)cc1` [SA-138, 4-phenyl azoaniline HCl salt], at amyloid β protein, the β structure recognition (%) at 1 µM was determined as 35.9%.

For `CN(C)c1ccc(/N=C/c2ccccc2)cc1` [SA-758, N-benzylidene-N′,N′-dimethylbenzene-1,4-diamine], the β structure recognition (%) at 1 µM at amyloid β protein amounted to 46.5%.

On to `Nc1ccc(SSc2ccc(N)cc2)cc1` [SA-260, 4-aminophenyldisulfide], for which, on amyloid β protein, the “β structure recognition (in words)” value was “highly recognize β structure” and the β structure recognition (%) at 1 µM was 83.1%.

As to `CCc1ccc(/N=C/c2ccc(N(C)C)cc2)cc1` [SA-408, N-(4-(dimethylamino)benzylidene)-4-ethylaniline], on amyloid β protein, the β structure recognition (%) at 1 µM was 7.9%.

`CN(C)c1ccc(/C=N/c2cc3c(ccc4ccccc43)cn2)cc1` [SA-672, benzo(F) isoquinoline-2-yl-(4-dimethylaminobenzylidene)-amine]: the β structure recognition (%) at 1 µM at amyloid β protein is 39.3%.
